This test concerns the target T1, USP7 (Homo sapiens, UniProt Q93009).
T1 construct: His tag (pFastBac-HT vector) (N); made in house; host or cells: Sf9 or High Five insect cells (baculovirus)
As to the kind of experiment: USP7 activity assay. It counts as biochemical. Conditions: 400 nM Ub-AMC, 152 pM enzyme; pre-incubated 30 minutes at 25° C., 60 minutes at 37° C.; sigmoidal fit; read-out: USP 7. The source says: The cDNA encoding USP7 was obtained by PCR amplification from placenta mRNA. USP7 cDNA was subcloned by PCR into a baculovirus expression vector (pFastBac-HT; Invitrogen). A cDNA encoding a mutated USP7 was generated by mutagenic PCR. The corresponding protein encodes a cysteine to alanine substitution at residue 223. The sequences were ascertained by sequencing of the entire open reading frame. Bacmids encoding USP7 were generated following DH10bac transposition. The corresponding bacmids were transfected into insect cells (Sf9). Viruses were recovered from culture supernatant and amplified twice. Insect cells (Sf9 or High Five; lnvitrogen) were infected for 72 hours. Total cell lysates were harvested and lyzed in lysis buffer (Tris HCl 50 mM pH 7.6; 0.75 % NP40; 500 mM NaCl; 10% glycerol; 1 mM DTT; 10 mM imidazole; Protease Inhibitor Cocktail; AEBSF 20 μg.ml^−1; Aprotinin 10 μg.ml^−1). Proteins were affinity purified on metal affinity resins (Talon Metal affinity resin; BD Biosciences). Bound materials were extensively washed in wash buffer (50 mM Sodium Phosphate pH 7.0; 300 mM NaCl; 10 mM imidazole; 0.5% Triton X-100; 10% glycerol) and eluted from the resin in 250 mM imidazole-containing wash buffer. Proteins were dialyzed in dialysis buffer (Tris HCl pH 7.6 20 mM; NaCl 200 mM; DTT 1 mM; EDTA 1 mM; 10% Glycerol). Proteins purifications were analyzed on 4-12% NuPAGE (Invitrogen).
USP7 was diluted in USP buffer (50 mM Tris HCl; 0.5 mM EDTA; 5 mM DTT; 0.01 % Triton X-100; Bovine Serum Albumin 0.05 mg.ml^−1 pH 7.6). Compounds stocks (100 mM) were stored at −20° C. in DMSO. Compounds were tested at the following final concentrations: 100 μM; 33.3 μM; 11.1 μM; 3.7 μM; 1.23 μM; 412 nM; 137 nM; 45.7 nM; 15.2 nM; 5 nM.
Reactions were performed as duplicates in Black LJL 96 well plates (HE microplates; Molecular Devices; 20 μl final reaction volume). The substrate concentration for USP7 was 400 nM Ub-AMC (Chem. Biol., 2003, 10, p. 837-846) (Boston Biochem). The concentrations of the enzyme (USP7) in specificity assays was 152 pM. The concentrations were determined in order to perform specificity assays under initial velocities at fixed substrate concentration. Compounds were pre-incubated with enzymes for 30 minutes at 25° C. Reactions were initiated by addition of substrate to the plates containing the enzymes (+/− compounds) diluted in assay buffer. Reactions were incubated for 60 minutes at 37° C. Reactions were stopped by adding acetic acid (100 mM final). Readings were performed on a Pherastar Fluorescent Reader (BMG). λ Emission 380 nm; λ Excitation=460 nm. Data (mean values +/− standard deviation) were analyzed as % of control (no compound) and plotted as percentage versus the Log of the compound concentration using GraphPad (Prism). Data were fitted to a sigmoidal model (variable slope).
T1 sequence (Q93009 whole entry): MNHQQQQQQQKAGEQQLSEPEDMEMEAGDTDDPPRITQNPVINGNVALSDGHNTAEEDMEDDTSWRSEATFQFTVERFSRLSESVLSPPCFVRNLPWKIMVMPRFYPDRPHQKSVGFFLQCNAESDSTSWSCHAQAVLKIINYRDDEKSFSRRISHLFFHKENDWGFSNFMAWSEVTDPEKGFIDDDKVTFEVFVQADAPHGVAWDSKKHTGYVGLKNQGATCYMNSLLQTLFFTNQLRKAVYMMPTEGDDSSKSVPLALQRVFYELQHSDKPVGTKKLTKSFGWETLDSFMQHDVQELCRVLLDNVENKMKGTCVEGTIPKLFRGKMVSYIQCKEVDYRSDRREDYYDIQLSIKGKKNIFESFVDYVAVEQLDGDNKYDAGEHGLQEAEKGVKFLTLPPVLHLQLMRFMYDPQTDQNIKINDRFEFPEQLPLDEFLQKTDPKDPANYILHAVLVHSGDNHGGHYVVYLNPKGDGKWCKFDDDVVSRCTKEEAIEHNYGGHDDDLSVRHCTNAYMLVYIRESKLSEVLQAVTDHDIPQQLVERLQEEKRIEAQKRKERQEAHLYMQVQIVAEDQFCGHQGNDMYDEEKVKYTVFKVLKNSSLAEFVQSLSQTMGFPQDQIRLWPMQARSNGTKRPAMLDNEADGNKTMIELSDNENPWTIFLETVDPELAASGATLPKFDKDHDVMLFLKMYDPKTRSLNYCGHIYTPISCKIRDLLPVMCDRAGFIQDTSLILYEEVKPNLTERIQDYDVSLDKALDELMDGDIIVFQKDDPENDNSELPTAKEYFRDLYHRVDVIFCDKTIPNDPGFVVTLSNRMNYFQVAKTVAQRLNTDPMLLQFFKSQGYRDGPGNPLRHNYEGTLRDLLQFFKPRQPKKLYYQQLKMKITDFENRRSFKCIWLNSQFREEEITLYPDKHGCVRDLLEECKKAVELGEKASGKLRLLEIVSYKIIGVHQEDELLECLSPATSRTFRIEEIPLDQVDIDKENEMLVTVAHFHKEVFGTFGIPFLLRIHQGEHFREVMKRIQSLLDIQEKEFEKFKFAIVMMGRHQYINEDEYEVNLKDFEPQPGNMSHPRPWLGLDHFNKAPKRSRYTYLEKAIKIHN
Take `CC(C)c1nnc2nc3c(nn12)-c1ccccc1C3=O` [Example 1l/B, 3-Isopropyl-1,2,3a,4,10-pentaaza-cyclopenta[b]fluoren-9-one]: the IC50 was found to be 820 nM.

Turning to `COCCOCCOCc1nnc2nc3c(nn12)C(=O)c1ccccc1-3` [Example 1n/A, 1-[2-(2-Methoxy-ethoxy)-ethoxymethyl]-2,3,4,10,10a-pentaaza-cyclopenta[b]fluoren-9-one], the IC50 worked out at 1200 nM.

For the molecule `CCc1nnc2nc3c(nn12)-c1c(OC)ccc(OC)c1C3=O` [Example 6/B, 3-Ethyl-5,8-dimethoxy-1,2,3a,4,10-pentaaza-cyclopenta[b]fluoren-9-one], the IC50 stood at 3080 nM.

For `CCc1nnc2nc3c(nn12)C(=O)c1cc(OC)c(OC)cc1-3` [Example 5b/A, 1-Ethyl-6,7-dimethoxy-2,3,4,10,10a-pentaaza-cyclopenta[b]fluoren-9-one], the IC50 was 13300 nM.

Turning to `CCCc1nnc2nc3c(nn12)-c1cc(OC)c(OC)cc1C3=O` [Example 5c/B, 6,7-Dimethoxy-3-propyl-1,2,3a,4,10-pentaaza-cyclopenta[b]fluoren-9-one], the IC50 came to 936 nM.

For the molecule `COc1cc2c(cc1OC)-c1nn3c(C)nnc3nc1C2=O` [Example 5a/B, 6,7-Dimethoxy-3-methyl-1,2,3a,4,10-pentaaza-cyclopenta[b]fluoren-9-one], the IC50 is 525 nM.

As to `O=C1c2ccccc2-c2nn3c(C(F)(F)F)nnc3nc21` [Example 1m/B, 3-Trifluoromethyl-1,2,3a,4,10-pentaaza-cyclopenta[b]fluoren-9-one], the IC50 came out at 226 nM.

As for “6-(7)-Chloro-1-methyl-2,3,4,10,10a-pentaaza-cyclopenta[b]fluoren-9-one [Example 3/A]”, the IC50 was 2800 nM.

On to `CCc1nnc2nc3c(nn12)-c1cc(OC)c(OC)cc1C3=O` [Example 5b/B, 3-Ethyl-6,7-dimethoxy-1,2,3a,4,10-pentaaza-cyclopenta[b]fluoren-9-one], for which the IC50 is 1050 nM.

(Values after patent US20090181972A1, “Novel Inhibitors of Cysteine Proteases, the Pharmaceutical Compositions Thereof and their Therapeutic Applications” (priority 2005, published 2009).)
